Structures are written as SMILES. Where two headings read alike, the source gives them in different places.

The nature of data set [1]: Absorption in rats after intragastric administration of different crystal forms (plasma PK, LC/MS/MS). The format is in vivo. To be noted: 8 mg/kg. The method, then: SD rats were intragastrically administered samples of different crystal forms. Blood samples (0.4 mL) were respectively collected from the venous plexus of the rat's fundus oculi at various time points: before administration and at 5, 15, 30, 60, 90, 120, 240, 360, 480, 600, and 1440 minutes after administration. The blood samples were centrifuged at 8000 rpm for 5 minutes to separate the upper plasma. 50 μL of plasma sample was added with 300 μL of acetonitrile containing an internal standard (Propranolol, 25 ng/mL) to precipitate proteins. The mixture was vortexed for 10 minutes, and centrifuged at 6000 g and 4° C. for 20 minutes. The supernatant (20 μL) was taken and diluted with 80 μL of ultrapure water. After centrifugation, 80 μL of the supernatant was taken for injection into a 96-well plate. The plasma drug concentration was determined using LC/MS/MS, and the corresponding pharmacokinetic parameters were calculated, as shown in Table 17.

The target in a further data set is T1, EGFR kinase (Homo sapiens, UniProt P00533).
T1 construct: purchased Carna 08-016
Briefly: EGFR/ErbB2 enzymatic assay (HTRF kinEASE-TK), EGFR. The format is biochemical. Conditions: EGFR kinase 0.06 units/μL, ATP 1.65 μM. The method, then: (§1) First, a 1× reaction buffer required for the kinase was prepared by diluting the 5× Enzymatic Buffer (HEPES 20 mM, pH 7.0, NaN3 0.1%, BSA 0.05%, sodium orthovanadate 0.5 mM) from the HTRF kinEASE-TK kit with deionized water to one-fold. At the same time, 50 nM Supplement Enzymatic Buffer (SEB reagent), 1 mM MnCl2, 5 mM MgCl2, and 1 mM DTT were added. Next, a 5× compound solution was prepared. […] This initial concentration was then used as the first concentration, and further diluted with DMSO in a 3-fold serial dilution to dilute a total of 10 concentrations. Subsequently, 1 μL of the serially diluted solution was added to 19 μL of 1× reaction buffer to prepare the 5× compound solution for later use. Then, 2 μL of the 5× compound solution was transferred from the 96-well plate into a 384-well plate. In the no-compound control wells, 2 μL of a mixture of 1 μL DMSO and 19 μL 1× reaction buffer was added. In the blank control wells, 2 μL of 250 mM EDTA was added. In the third step, the enzyme reaction stage, the kinase, substrate (TK Substrate-biotin), and ATP were prepared into a 2.5× enzyme/substrate mixture and a 2.5× ATP solution using the 1× reaction buffer. […] Data were measured on EnVision™, with a 337 nm laser used as the excitation light. The RFU was measured at 665 nm and 620 nm, and RFU 665 nM/RFU 620 nM×10000 was used as the final data for analysis.

Another data set deals with T2, ErbB2 kinase (HER2) (Homo sapiens, UniProt P04626).
T2 construct: purchased Sigma E2645-500UN
Briefly: EGFR/ErbB2 enzymatic assay (HTRF kinEASE-TK), ErbB2. The format is biochemical. To be noted: ErbB2 kinase 0.06 ng/μL, ATP 4 μM. The method, then:
as §1

The nature of data set [2]: Physicochemical stability of crystal form C (UPLC purity, XRPD). The method, then:
The solid samples after being placed under different conditions were respectively tested for purity by UPLC to evaluate chemical stability, and the crystal form was tested by XRPD to evaluate physical stability. […] Additionally, no significant degradation was observed after one day at 60° C. or one week at 25° C./60% RH and 40° C./75% RH (details of purity changes are provided in Table 16).

T1 sequence (P00533 25-1210): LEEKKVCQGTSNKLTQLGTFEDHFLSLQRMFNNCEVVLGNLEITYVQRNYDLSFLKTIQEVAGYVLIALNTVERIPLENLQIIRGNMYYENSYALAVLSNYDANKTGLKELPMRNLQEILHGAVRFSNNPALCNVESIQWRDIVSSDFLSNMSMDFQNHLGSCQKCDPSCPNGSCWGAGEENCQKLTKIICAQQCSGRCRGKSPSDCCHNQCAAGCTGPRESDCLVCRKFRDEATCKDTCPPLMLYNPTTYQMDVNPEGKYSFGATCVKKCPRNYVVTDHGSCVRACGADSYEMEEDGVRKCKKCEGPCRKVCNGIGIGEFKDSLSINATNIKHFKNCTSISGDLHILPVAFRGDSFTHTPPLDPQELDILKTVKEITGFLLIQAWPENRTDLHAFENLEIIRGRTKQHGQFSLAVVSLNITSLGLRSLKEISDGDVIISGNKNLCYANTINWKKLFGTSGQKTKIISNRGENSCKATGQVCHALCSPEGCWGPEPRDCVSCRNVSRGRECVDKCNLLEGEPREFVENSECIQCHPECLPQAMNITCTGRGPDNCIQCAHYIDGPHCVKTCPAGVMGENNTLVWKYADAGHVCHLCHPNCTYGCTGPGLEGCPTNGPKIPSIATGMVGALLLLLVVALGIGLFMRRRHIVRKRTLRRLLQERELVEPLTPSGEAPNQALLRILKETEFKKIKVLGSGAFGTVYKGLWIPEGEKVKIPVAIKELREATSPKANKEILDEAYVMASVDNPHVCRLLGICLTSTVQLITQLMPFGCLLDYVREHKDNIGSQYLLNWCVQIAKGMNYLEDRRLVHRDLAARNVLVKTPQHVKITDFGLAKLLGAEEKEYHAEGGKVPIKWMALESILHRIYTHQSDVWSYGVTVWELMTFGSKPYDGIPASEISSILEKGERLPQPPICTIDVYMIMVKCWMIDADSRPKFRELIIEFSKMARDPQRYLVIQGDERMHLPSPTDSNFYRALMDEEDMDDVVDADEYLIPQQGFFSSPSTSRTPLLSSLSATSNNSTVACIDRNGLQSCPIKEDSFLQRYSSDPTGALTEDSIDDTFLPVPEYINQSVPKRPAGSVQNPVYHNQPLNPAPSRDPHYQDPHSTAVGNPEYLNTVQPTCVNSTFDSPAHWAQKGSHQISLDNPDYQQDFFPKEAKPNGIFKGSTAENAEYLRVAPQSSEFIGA
T2 sequence (P04626 23-1255): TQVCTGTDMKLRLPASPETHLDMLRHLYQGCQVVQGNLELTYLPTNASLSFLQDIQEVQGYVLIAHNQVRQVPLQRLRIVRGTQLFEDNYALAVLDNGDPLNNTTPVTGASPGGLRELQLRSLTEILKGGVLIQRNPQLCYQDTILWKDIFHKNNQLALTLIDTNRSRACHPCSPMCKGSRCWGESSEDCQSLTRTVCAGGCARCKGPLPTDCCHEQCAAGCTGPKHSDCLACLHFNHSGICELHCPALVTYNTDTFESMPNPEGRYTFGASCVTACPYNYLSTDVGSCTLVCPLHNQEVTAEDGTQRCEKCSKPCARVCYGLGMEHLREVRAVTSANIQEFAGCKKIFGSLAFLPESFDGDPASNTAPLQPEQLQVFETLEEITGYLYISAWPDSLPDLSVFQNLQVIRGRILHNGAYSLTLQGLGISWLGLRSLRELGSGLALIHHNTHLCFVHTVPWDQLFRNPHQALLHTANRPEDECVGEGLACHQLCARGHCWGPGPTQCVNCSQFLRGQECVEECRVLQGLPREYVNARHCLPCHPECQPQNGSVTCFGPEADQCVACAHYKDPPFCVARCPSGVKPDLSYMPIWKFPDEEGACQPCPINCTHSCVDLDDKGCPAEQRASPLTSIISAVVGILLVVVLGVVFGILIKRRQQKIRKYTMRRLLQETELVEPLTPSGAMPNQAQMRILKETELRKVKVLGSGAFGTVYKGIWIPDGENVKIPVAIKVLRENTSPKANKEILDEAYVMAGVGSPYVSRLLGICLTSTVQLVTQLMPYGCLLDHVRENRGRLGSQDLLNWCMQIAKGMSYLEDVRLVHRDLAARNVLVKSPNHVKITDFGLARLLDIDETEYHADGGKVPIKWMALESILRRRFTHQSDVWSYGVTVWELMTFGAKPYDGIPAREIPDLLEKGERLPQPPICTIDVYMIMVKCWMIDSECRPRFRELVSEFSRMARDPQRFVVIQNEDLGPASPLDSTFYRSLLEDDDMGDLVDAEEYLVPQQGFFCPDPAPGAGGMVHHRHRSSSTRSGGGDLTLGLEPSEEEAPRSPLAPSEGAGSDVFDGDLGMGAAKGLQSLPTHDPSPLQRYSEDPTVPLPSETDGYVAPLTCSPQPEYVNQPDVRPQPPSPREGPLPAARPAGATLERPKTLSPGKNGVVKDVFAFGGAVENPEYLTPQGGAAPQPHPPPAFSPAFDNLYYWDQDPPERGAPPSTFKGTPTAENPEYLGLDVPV

In the case of `CCOc1cc2ncnc(Nc3ccc(Oc4ccn5ncnc5c4)c(C)c3)c2cc1NC(=O)/C(F)=C/[C@H]1CCCN1C` [Amorphous form, (R,Z)-N-(4-((4-([1,2,4]triazolo[1,5-α]pyridin-7-yloxy)-3-methylphenyl)amino)-7-ethoxyquinazolin-6-yl)-2-fluoro-3-(1-methylpyrrolidin-2-yl)acrylamide], in data set [1] (SD rats), the AUCextra is recorded as 0.758 (h)*(ng/mL), the AUClast is listed as 6536 (h)*(ng/mL), the AUCtot was 6586 (h)*(ng/mL) and the Cmax turned out to be 800 ng/mL. The Tmax in data set [1] (SD rats) is 6.00 h. Moreover, the half-life in data set [1] (SD, rat, plasma, po) was 3.03 h. Besides, the MRT in data set [1] (SD, rat, plasma, po, read-out: MRT) was 6.52 h.

Consider `CCOc1cc2ncnc(Nc3ccc(Oc4ccn5ncnc5c4)c(C)c3)c2cc1NC(=O)/C(F)=C/[C@H]1CCCN1C` [Crystal form A, (R,Z)-N-(4-((4-([1,2,4]triazolo[1,5-α]pyridin-7-yloxy)-3-methylphenyl)amino)-7-ethoxyquinazolin-6-yl)-2-fluoro-3-(1-methylpyrrolidin-2-yl)acrylamide], for which, in data set [1] (SD rats), the AUCextra was 0.288 (h)*(ng/mL), the AUClast is on record as 4789 (h)*(ng/mL), the AUCtot was 4802 (h)*(ng/mL) and the Cmax was determined as 753 ng/mL. In addition, in data set [1] (SD rats), the mean residence time (MRT) was 4.74 h, the Tmax came out at 2.00 h and the t1/2 was determined as 2.74 h.

In the case of `CCOc1cc2ncnc(Nc3ccc(Oc4ccn5ncnc5c4)c(C)c3)c2cc1NC(=O)/C(F)=C/[C@H]1CCCN1C` [Crystal form B, (R,Z)-N-(4-((4-([1,2,4]triazolo[1,5-α]pyridin-7-yloxy)-3-methylphenyl)amino)-7-ethoxyquinazolin-6-yl)-2-fluoro-3-(1-methylpyrrolidin-2-yl)acrylamide], in data set [1] (SD rats), the AUCextra was 1.01 (h)*(ng/mL), the AUClast was 5904 (h)*(ng/mL), the AUCtot is given as 5965 (h)*(ng/mL) and the Cmax is recorded as 599 ng/mL. In addition, in data set [1] (SD rats), the MRT amounted to 6.07 h, the Tmax was determined as 6.00 h and the t1/2 amounted to 3.34 h.

Consider `CCOc1cc2ncnc(Nc3ccc(Oc4ccn5ncnc5c4)c(C)c3)c2cc1NC(=O)/C(F)=C/[C@H]1CCCN1C` [Crystal form C, (R,Z)-N-(4-((4-([1,2,4]triazolo[1,5-α]pyridin-7-yloxy)-3-methylphenyl)amino)-7-ethoxyquinazolin-6-yl)-2-fluoro-3-(1-methylpyrrolidin-2-yl)acrylamide], for which the IC50 at EGFR kinase amounted to 1.45 nM. Further, in data set [1] (SD rats), the AUCextra is on record as 0.451 (h)*(ng/mL), the AUClast is recorded as 6863 (h)*(ng/mL), the AUCtot is reported as 6894 (h)*(ng/mL) and the maximum concentration (Cmax) is given as 1165 ng/mL. Moreover, in data set [1] (SD rats), the MRT is 4.63 h, the Tmax stood at 2.00 h and the t1/2 worked out at 3.04 h. Moreover, at ErbB2 kinase (HER2), the IC50 amounted to 0.26 nM. The compound further displayed a Stability sample purity in data set [2] (25° C./60% RH, 1 week, open) of 99.29 area %. Moreover, in data set [2] (25° C./60% RH, one week), the “Peak at RRT 0.63” value is given as 0.18%, the “Peak at RRT 0.67” value is listed as 0.18%, the “Peak at RRT 0.95” value is recorded as 0.08% and the “Peak at RRT 1.00” value is on record as 99.29%. For the same compound, in data set [2] (25° C./60% RH, one week), the “Peak at RRT 1.03” value is recorded as 0.12% and the “Peak at RRT 1.08” value is recorded as 0.15%. Besides, the Stability sample purity in data set [2] (40° C./75% RH, 1 week, open) is 99.29 area %. In data set [2] (40° C./75% RH, one week), the “Peak at RRT 0.63” value stood at 0.18%, the “Peak at RRT 0.67” value was 0.18%, the “Peak at RRT 0.95” value amounted to 0.08% and the “Peak at RRT 1.00” value was 99.29%. Also, in data set [2] (40° C./75% RH, one week), the “Peak at RRT 1.03” value is 0.12% and the “Peak at RRT 1.08” value was determined as 0.15%. The same compound returned a Stability sample purity in data set [2] (60° C., 24 hours, sealed) of 99.29 area %. Further, in data set [2] (60° C., one day), the “Peak at RRT 0.63” value came out at 0.18%, the “Peak at RRT 0.67” value is 0.18%, the “Peak at RRT 0.95” value stood at 0.08% and the “Peak at RRT 1.00” value is given as 99.29%. Also, in data set [2] (60° C., one day), the “Peak at RRT 1.03” value came to 0.12% and the “Peak at RRT 1.08” value is 0.15%. In data set [2] (Initial sample), the “Peak at RRT 0.63” value came out at 0.18%, the “Peak at RRT 0.67” value stood at 0.18%, the “Peak at RRT 0.95” value was 0.08% and the “Peak at RRT 1.00” value is given as 99.31%. In data set [2] (Initial sample), the “Peak at RRT 1.03” value stood at 0.10% and the “Peak at RRT 1.08” value was 0.15%. The Crystal form change entry in data set [2] (XRPD, 60° C. 24 hours, 25° C./60% RH 1 week, 40° C./75% RH 1 week) is reported as “No”. Besides, the Initial purity in data set [2] (before storage, UPLC) came to 99.31 area %.

Take `CCOc1cc2ncnc(Nc3ccc(Oc4ccn5ncnc5c4)c(C)c3)c2cc1NC(=O)/C(F)=C/[C@H]1CCCN1C` [Crystal form M, (R,Z)-N-(4-((4-([1,2,4]triazolo[1,5-α]pyridin-7-yloxy)-3-methylphenyl)amino)-7-ethoxyquinazolin-6-yl)-2-fluoro-3-(1-methylpyrrolidin-2-yl)acrylamide]: in data set [1] (SD rats), the AUCextra is 0.169 (h)*(ng/mL), the AUClast was 2870 (h)*(ng/mL), the AUCtot is 2875 (h)*(ng/mL) and the Cmax amounted to 489 ng/mL. Also, in data set [1] (SD rats), the MRT came to 4.59 h, the Tmax turned out to be 2.00 h and the t1/2 is recorded as 2.55 h.

The values are drawn from patent US20250163053A1, “CRYSTALLINE FORM OF NITROGEN-CONTAINING HETEROCYCLIC COMPOUND, PREPARATION METHOD THEREFOR AND USE THEREOF” (SHANGHAI PHARMACEUTICALS HOLDING CO., LTD., priority 2022, published 2025).
